Here are results for one compound from patent publication US7395112B2, “Method and apparatus for treating tumors using low strength electric fields” (priority 2002, dated 2008).

Assay [1] relates to B16-F10.9 melanoma. Put plainly: Surgery with taxol versus LEFCT-EC with taxol in B16-F10.9 melanoma. Format: in vivo, C57BL/6 mice. The method, then:
Comparison of surgery and LEFCT-EC: To compare the efficacy of LEFCT-EC to that of conventional surgery and chemotherapy treatments, C57BL/6 male mice (8-12 weeks old) were injected with 10^5 B16-F10.9 cells subcutaneously. Once the tumors reached 5 mm in diameter (11-17 days following inoculation), they were surgically removed. One experimental group received a single dose of taxol (20 mg/kg) subcutaneously in close proximity to the site of the operation one day following tumorectomy.

The test system of assay [2] is DA3 mammary adenocarcinoma. Put plainly: Winn assay: DA3 cells co-inoculated with splenocytes of cured mice. The assay is classed as in vivo, BALB/c mice. The conditions noted are these: 10^5 DA3 cells + 10^7 splenocytes of mice cured via LEFCT-EC with taxol.
Assay [3] has as its system B16-F10.9 melanoma. Nature of the assay: Rechallenge with B16-F10.9 cells of mice cured by LEFCT-EC. The assay is classed as in vivo, C57BL/6 mice. The text has this: FIG. 17 is a data plot depicting the cumulative survival of mice previously bearing B16-F10.9 melanoma and cured by LEFCT-EC with cisplatin or taxol following challenge with B16-F10.9 melanoma cells. Mice cured by LEF-chemotherapy that survived for 120-180 days after initial tumor inoculation, were challenged with 2×10^5 B16-F10.9 cells subcutaneously.
Effect of curative LEFCT-EC treatment on generation of anti B16-F10.9 tumor resistance: The resistance of mice cured of B16-F10.9 melanoma by LEF-chemotherapy was analyzed by challenging such cured mice with a tumorigenic dose of B16-F 10.9 melanoma cells.

In assay [4] the test system is B16-F10.9 melanoma. Nature of the assay: LEFCT-EC in mice bearing subcutaneous B16-F10.9 melanoma. Conditions: for Tumor size (mean ± standard error): 7 days after treatment. The assay is classed as in vivo, C57BL/6 mice. The method, then:
Animals: C57BL/6 male mice were obtained from the breeding colony of Tel-Aviv University, Israel. Mice were used at 8-12 weeks of age. Animal care and experimentation was carried out in accordance with Tel-Aviv University guidelines.
Melanoma tumor cell line: The highly metastatic, poorly immunogenic B16-F10.9 (F10.9) subclone of the B16 melanoma cell line was used to generate melanoma tumors in mice (Eisenbach L. et al., 1984. Int J Cancer 34:567). Cells were maintained in DMEM supplemented with 100 U/ml penicillin, 100 μg/ml streptomycin, 4 mM glutamine, 1 mM sodium pyruvate, 1% non-essential amino acids and 10% heat-inactivated fetal calf serum (FCS); and were cultured at 37° C. in a humidified incubator in an atmosphere of 7% carbon dioxide and 93% air.
Tumor generation protocol: F10.9 tumors were induced in C57BL/6 mice by subcutaneous injection of 2×10^5 F10.9 cells. Mice were subjected to experimental treatments once tumors reached 5 mm in diameter (about 60-70 mm^3). Chemotherapeutic drugs: The following chemotherapeutic drugs used were: cis-platinum (II) diamminedichloride (cisplatin; #P-4394, Sigma, Israel), dissolved in PBS for injections; Taxol (Mead Johnson Oncology Products, A Bristol-Myers Squibb, USA), obtained as a sterile nonpyrogenic solution containing 6 mg/ml paclitaxel, 527 mg/ml of purified Cremophor EL (polyoxyethylated castor oil) and 5-FU (Abic, Israel).
Low-strength electric field enhanced cancer therapy protocol: Mice were subjected to a single treatment of LEFCT-EC, once tumors reached 5 mm in diameter (11-17 days following tumor cell inoculation). Volumes of up to 100 μl of chemotherapeutic agents were injected into tumor loci, and exposures to electric fields were carried out 3-4 min following intratumoral injection of chemotherapeutic agents. To expose tumors to electric fields, stainless steel electrode needles (Karlsbader insect pins No 0. BioQuip Products, USA) soldered at their brassy ends with thin isolated copper wires were used. Electrodes were inserted to a depth of about 7 mm percutaneously into and in the immediate vicinity of the tumor; one cathode needle in the center of the tumor and three peripheral anodes, at a distance of about 5 mm from the cathode. The needles were connected to an electric pulse generator (Grass S48 Stimulator, USA). The field strength applied was about 40 V/cm; the repetition frequency, 500 Hz; and the pulse width, 180 μs. All mice were anesthetized prior to LEF treatment.
Statistical analysis: Statistical analysis of survival times (Kaplan-Meir test), survival comparisons between groups (Mantel-Cox test) and tumor volume differences between groups (Kolmogorov-Smirnov test) were performed using StatSoft Statistica statistical software. The 10-15% mortality rate in the 5 days following LEF or LEF-chemotherapy was considered as treatment-caused, therefore such cases of mortality were excluded.
Tumor volume determination: performed as described above in Example 1 of the Examples section.

In assay [5] the test system is DA3 mammary adenocarcinoma. Put plainly: LEFCT-EC in mice bearing DA3 mammary adenocarcinoma. Format: in vivo, BALB/c mice. On the procedure:
Animals: BALB/c female mice between the ages of 8 to 12 weeks obtained from the breeding colony of Tel-Aviv University, Israel were used in vivo tumor therapy experiments. Animal care and experimentation was carried out in accordance with Tel-Aviv University guidelines.
Tumor cell line: The highly metastatic, poorly immunogenic mammary adenocarcinoma cell line DA3 (Lopez D M. et al., 1981. J Natl Cancer Inst. 66:191) was used to generate mammary carcinoma tumors in mice. Cells were grown in DMEM supplemented with 100 U/ml penicillin, 100 μg/ml streptomycin, 4 mM glutamine, 1 mM sodium pyruvate, 1% non-essential amino acids and 10% heat-inactivated fetal calf serum (FCS), and cultured at 37° C. in a humidified incubator in an atmosphere of 7% carbon dioxide and 93% air. Tumors of this cell line grown to 1 cm in diameter produce metastatic cells, mainly in the lungs.
Reagents: Taxol (Mead Johnson Oncology Products, A Bristol-Myers Squibb, USA), obtained as a sterile nonpyrogenic solution containing 6 mg/ml paclitaxel, 527 mg/ml of purified Cremophor EL (polyoxyethylated castor oil) and 49.7% (v/v) dehydrated ethanol; and bleomycin (MegaPharm, Israel) were the anti cancer drugs used.
Low-strength electric field enhanced cancer chemotherapy protocol: Mice were subjected to a single treatment of LEF-chemotherapy, once primary tumors reached 5 mm in diameter (about 60-70 mm^3) (11-17 days following subcutaneous tumor cell inoculation). Up to 100 μl of chemotherapeutic agents was injected into the tumor loci. The exposure to electric field was carried out as described above in Example 2 of the Examples section.
Effect of LEFCT-EC using bleomycin or taxol on the survival of DA3 mammary adenocarcinoma bearing nice: BALB/c mice bearing DA3 mammary adenocarcinoma were treated by LEF-chemotherapy with intratumoral taxol (20 mg/kg) (FIG. 19) or bleomycin (30 U/kg) (FIG. 20) administration and their survival rate was compared with that of mice treated only with LEF or chemotherapy.

For assay [6], the system named is DA3 mammary adenocarcinoma. Nature of the assay: Rechallenge with DA3 cells of mice cured by LEFCT-EC with taxol. Conditions: challenged with 10^5 DA3 cells. The assay is classed as in vivo, BALB/c mice. On the procedure: Effect of curative LEFCT-EC treatment with taxol on generation of anti DA3 tumor resistance: The resistance of mice previously cured of DA3 mammary carcinoma via LEFCT-EC treatment with taxol to tumor growth following challenge by inoculation with 10^5 DA3 cells 120-180 days following initial tumor inoculation was analyzed. […] The MSTs of first-time inoculated normal mice and challenged mice were 38.1 and 46.7 days, respectively. Thus, curative treatment of DA3 tumors via LEFCT-EC treatment with taxol has the capacity to induce significant protection against growth of such a tumor in cured mice challenged with a tumorigenic dose thereof.

[7] abbreviates: chemotherapy alone, intratumoral, no LEF.

On to `CC(=O)O[C@H]1C(=O)[C@@]2(C)[C@H]([C@H](OC(=O)c3ccccc3)[C@]3(O)C[C@H](OC(=O)[C@H](O)[C@@H](NC(=O)c4ccccc4)c4ccccc4)C(C)=C1C3(C)C)[C@]1(OC(C)=O)CO[C@@H]1C[C@@H]2O` [taxol, paclitaxel], for which the cure rate in the assay with B16-F10.9 melanoma [1] (LEF-chemotherapy with taxol) is reported as 26%; in the assay with B16-F10.9 melanoma [1] (surgery + taxol 20 mg/kg subcutaneously one day after tumorectomy), 13%; in assay [5] (LEF-chemotherapy, intratumoral taxol 20 mg/kg or bleomycin 30 U/kg, 180 days after tumor inoculation) it was 17%. The survival extension in the assay with B16-F10.9 melanoma [1] (LEF-chemotherapy with taxol) stood at 84 days. For the same compound, the MST in the assay with B16-F10.9 melanoma [1] (surgery + taxol 20 mg/kg subcutaneously) was 55 days. Moreover, the Mean survival time in assay [2] turned out to be 39 days. For the same compound, the Tumor size in assay [2] (14 days after inoculation) came out at 143 µL. Also, the “MST of challenged mice” value in the assay with B16-F10.9 melanoma [3] (mice cured by LEFCT-EC with the drug, challenged with 2×10^5 B16-F10.9 cells) stood at 73.2 days; in assay [6], 46.7 days. The “challenged mice that did not develop tumor” value in the assay on B16-F10.9 melanoma [3] (mice previously treated by LEFCT-EC with taxol) was “about 23.5%”. For the same compound, the “Tumor size (mean ± standard error)” value is on record as 71 ± 25 mm^3 in the assay with B16-F10.9 melanoma [4] (LEF-CT (drug + LEF), cisplatin 4 mg/kg, bleomycin 8 U/kg, 5-FU 150 mg/kg, taxol 20 mg/kg) and 927 ± 177 mm^3 in the assay on B16-F10.9 melanoma [4] (intratumoral drug injection alone, same doses). Also, the “mean survival time (MST)” value with B16-F10.9 melanoma [4] (LEF-chemotherapy: intratumoral drug + LEF about 40 V/cm 12 min, 120 days (cisplatin) or 180 days (taxol, bleomycin) after inoculation) came to 83.5 days; with B16-F10.9 melanoma [4] (setting [7]), 36.7 days. Further, the “cure rate / animals alive and free of visible tumor” value in the assay with B16-F10.9 melanoma [4] (LEF-chemotherapy, 180 days after tumor inoculation) came out at 26%. Further, the “effect of drug alone on survival” value in the assay on B16-F10.9 melanoma [4] (setting [7]) is “no effect”. In addition, the “LEFCT-EC treated mice that died two months and later after treatment with pulmonary metastatic foci, free of primary tumor” value with B16-F10.9 melanoma [4] (pooled statement for cisplatin, taxol or bleomycin) is on record as “About 10%”. The “survival time, Mean” value in assay [5] (LEF-chemotherapy with the drug) turned out to be 73.8; in assay [5] (drug alone, intratumoral) it was 43.9. In addition, the “survival time, Median” value in assay [5] (LEF-chemotherapy with the drug) amounted to 54.5; in assay [5] (drug alone, intratumoral), 48.
